Columns and labels:
Assay in all cases: relative viability (nuclei count vs DMSO), 5 days (fraction); higher = more cells survive
RU-SKI 43 + Phenformin = compound: CC[C@@H](C)CNCC(=O)N1CCC2=C([C@@H]1COC3=CC=CC(=C3)C)C=CS2 [RU-SKI 43] + N=C(N)NC(=N)NCCc1ccccc1 [Phenformin] (partner 250 µM)
Summary of the method: (§1)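 Five library-drug doses in √10 steps were combined with a fixed anchor-drug dose, or a single drug was given alone, by pin tool to lung cancer cell lines in 1536-well plates the day after seeding. Nuclei were stained and counted after 5 days. Relative viability is the nuclei count in treated wells over that in vehicle wells, taken as the median of duplicate plates.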

Irinotecan + Lapatinib = compound: CCc1c2c(nc3ccc(OC(=O)N4CCC(N5CCCCC5)CC4)cc13)-c1cc3c(c(=O)n1C2)COC(=O)[C@]3(O)CC [Irinotecan] + CS(=O)(=O)CCNCc1ccc(-c2ccc3ncnc(Nc4ccc(OCc5cccc(F)c5)c(Cl)c4)c3c2)o1 [Lapatinib] (partner 2 µM)
Summary of the method: as §1

MK-8033 + Phenformin = compound: Cn1cc(-c2cnc3ccc4ccc(CS(=O)(=O)NCc5ccccn5)cc4c(=O)c3c2)cn1 [MK-8033] + N=C(N)NC(=N)NCCc1ccccc1 [Phenformin] (partner 250 µM)
Summary of the method: as §1

MK-8033 + Olaparib = compound: Cn1cc(-c2cnc3ccc4ccc(CS(=O)(=O)NCc5ccccn5)cc4c(=O)c3c2)cn1 [MK-8033] + O=C(c1cc(Cc2n[nH]c(=O)c3ccccc23)ccc1F)N1CCN(C(=O)C2CC2)CC1 [Olaparib] (partner 8 µM)
Summary of the method: as §1

Row | Cell Line | relative viability (RU-SKI 43 + Phenformin; first compound 0.1 µM) | relative viability (RU-SKI 43 + Phenformin; first compound 0.3162 µM) | relative viability (RU-SKI 43 + Phenformin; first compound 1 µM) | relative viability (RU-SKI 43 + Phenformin; first compound 3.162 µM) | relative viability (RU-SKI 43 + Phenformin; first compound 10 µM) | relative viability (Irinotecan + Lapatinib; first compound 0.6325 µM) | relative viability (Irinotecan + Lapatinib; first compound 2 µM) | relative viability (Irinotecan + Lapatinib; first compound 6.325 µM) | relative viability (Irinotecan + Lapatinib; first compound 20 µM) | relative viability (MK-8033 + Phenformin; first compound 0.02 µM) | relative viability (MK-8033 + Phenformin; first compound 0.06325 µM) | relative viability (MK-8033 + Phenformin; first compound 0.2 µM) | relative viability (MK-8033 + Phenformin; first compound 0.6325 µM) | relative viability (MK-8033 + Phenformin; first compound 2 µM) | relative viability (MK-8033 + Olaparib; first compound 0.02 µM) | relative viability (MK-8033 + Olaparib; first compound 0.06325 µM) | relative viability (MK-8033 + Olaparib; first compound 0.2 µM) | relative viability (MK-8033 + Olaparib; first compound 0.6325 µM) | relative viability (MK-8033 + Olaparib; first compound 2 µM)
1 | NCI-H1437 | 0.359 | 0.267 | 0.311 | 0.352 | 0.306 | 0.527 | 0.493 | 0.253 | 0.117 | 0.293 | 0.291 | 0.291 | 0.324 | 0.267 | 0.632 | 0.619 | 0.596 | 0.633 | 0.598
2 | NCI-H1650 | 0.423 | 0.314 | 0.445 | 0.386 | 0.336 | 0.386 | 0.51 | 0.401 | 0.152 | 0.412 | 0.285 | 0.38 | 0.441 | 0.399 | 0.808 | 0.646 | 0.688 | 0.797 | 0.713
3 | NCI-H1651 | 0.351 | 0.418 | 0.363 | 0.342 | 0.277 | 0.293 | 0.536 | 0.179 | 0.101 | 0.429 | 0.29 | 0.346 | 0.312 | 0.304 | 0.202 | 0.175 | 0.181 | 0.178 | 0.16
4 | NCI-H1666 | 0.58 | 0.574 | 0.518 | 0.519 | 0.53 | 0.466 | 0.556 | 0.35 | 0.223 | 0.588 | 0.598 | 0.548 | 0.612 | 0.527 | 0.755 | 0.683 | 0.659 | 0.82 | 0.774
5 | NCI-H1734 | 0.43 | 0.385 | 0.44 | 0.35 | 0.38 | 0.883 | 0.588 | 0.186 | 0.191 | 0.435 | 0.338 | 0.366 | 0.361 | 0.37 | 0.644 | 0.553 | 0.546 | 0.615 | 0.648
6 | NCI-H1755 | 0.648 | 0.613 | 0.63 | 0.644 | 0.666 | 0.883 | 0.9 | 0.309 | 0.318 | 0.603 | 0.572 | 0.605 | 0.682 | 0.653 | 0.899 | 0.916 | 0.863 | 0.846 | 0.735
7 | NCI-H1792 | 0.267 | – | 0.4 | – | 0.227 | 0.92 | 0.949 | 0.202 | 0.11 | 0.346 | 0.267 | – | 0.282 | 0.225 | 0.451 | 0.448 | 0.337 | 0.351 | 0.3
8 | NCI-H1793 | 0.401 | 0.391 | 0.464 | 0.323 | 0.3 | – | 0.547 | 0.253 | 0.235 | 0.383 | 0.284 | 0.316 | 0.394 | 0.293 | 0.863 | – | 0.688 | 0.894 | 0.94
9 | NCI-H1915 | 0.391 | 0.445 | 0.365 | 0.376 | 0.361 | 0.434 | 0.373 | 0.147 | 0.15 | 0.356 | 0.315 | 0.373 | 0.391 | 0.376 | 0.243 | 0.241 | 0.267 | 0.252 | 0.259
10 | NCI-H1944 | 0.214 | 0.21 | 0.225 | 0.213 | 0.177 | 0.563 | 0.369 | 0.178 | 0.187 | 0.186 | 0.159 | 0.19 | 0.198 | 0.181 | 0.402 | 0.365 | 0.39 | 0.39 | 0.415
11 | NCI-H1975 | 0.385 | 0.468 | 0.444 | 0.422 | 0.404 | 0.86 | 0.689 | 0.302 | 0.14 | 0.409 | 0.417 | 0.405 | – | 0.364 | 0.721 | 0.757 | 0.789 | 0.77 | 0.78
12 | NCI-H1993 | 0.526 | 0.5 | 0.471 | 0.511 | 0.487 | 0.802 | 0.76 | 0.671 | 0.458 | 0.591 | 0.469 | 0.497 | 0.537 | 0.488 | 0.996 | 1.01 | 0.705 | 0.946 | 0.669
13 | NCI-H2009 | 0.49 | 0.514 | 0.519 | 0.474 | 0.424 | 0.308 | 0.445 | 0.294 | 0.12 | 0.524 | 0.476 | 0.456 | 0.482 | 0.463 | 0.716 | 0.683 | 0.632 | 0.712 | 0.707
14 | NCI-H2023 | 0.421 | 0.471 | 0.466 | 0.43 | 0.396 | 0.484 | 0.408 | 0.129 | 0.045 | 0.41 | 0.348 | 0.348 | 0.356 | 0.306 | 0.534 | 0.415 | 0.439 | 0.493 | 0.396
15 | NCI-H2085 | 0.758 | 0.652 | 0.709 | 0.698 | 0.631 | 0.592 | 0.608 | 0.473 | 0.515 | 0.736 | 0.554 | 0.694 | 0.703 | 0.674 | 0.771 | 0.788 | 0.766 | 0.794 | 0.73
16 | NCI-H2087 | 0.46 | 0.552 | 0.477 | 0.526 | 0.406 | 0.299 | 0.3 | 0.168 | 0.205 | 0.5 | 0.434 | 0.417 | 0.435 | 0.386 | 0.593 | 0.57 | 0.535 | 0.492 | 0.622
17 | NCI-H2126 | 0.593 | 0.517 | 0.59 | 0.589 | 0.546 | – | 0.632 | 0.304 | 0.357 | 0.511 | 0.494 | 0.497 | 0.533 | 0.51 | 0.978 | 0.921 | 0.806 | 0.903 | 0.875
18 | NCI-H2170 | 0.462 | 0.417 | 0.395 | 0.431 | 0.403 | 0.271 | 0.264 | 0.231 | 0.2 | 0.447 | 0.424 | 0.374 | 0.407 | 0.399 | 0.602 | 0.539 | 0.648 | 0.59 | 0.536
19 | NCI-H2228 | 0.239 | 0.407 | 0.237 | 0.329 | 0.278 | 0.798 | 0.772 | 0.461 | 0.353 | 0.399 | 0.287 | 0.345 | 0.294 | 0.299 | 0.79 | 0.568 | 0.52 | 0.865 | 0.619
20 | NCI-H2347 | 0.34 | 0.352 | 0.544 | 0.36 | 0.383 | 0.682 | 0.738 | 0.449 | 0.444 | 0.442 | 0.37 | 0.57 | 0.59 | 0.428 | 0.564 | 0.573 | 0.535 | 0.617 | 0.575
21 | NCI-H2405 | 0.37 | 0.371 | 0.413 | 0.379 | 0.358 | – | 1.05 | 0.333 | 0.101 | 0.406 | 0.348 | 0.403 | 0.377 | 0.367 | 0.832 | 0.881 | 0.868 | 0.913 | 0.876
22 | NCI-H3122 | 0.394 | 0.376 | 0.411 | 0.379 | 0.37 | 0.994 | 0.529 | 0.24 | 0.274 | 0.346 | 0.347 | 0.347 | 0.368 | 0.354 | 0.576 | 0.662 | 0.618 | 0.572 | 0.589
23 | PC-3 [JPC-3] | 0.466 | 0.484 | 0.457 | 0.52 | 0.511 | 0.3 | 0.45 | 0.311 | 0.316 | 0.482 | 0.426 | 0.469 | 0.475 | 0.503 | 1.08 | – | 1.04 | 1.16 | 1.09
24 | PC-14 | 0.646 | 0.468 | 0.841 | 0.457 | 0.651 | 0.314 | 0.262 | 0.15 | 0.16 | 0.605 | 0.472 | 0.508 | 0.524 | 0.564 | 0.249 | 0.27 | 0.299 | 0.321 | 0.271
25 | RERF-LC-KJ | 0.374 | 0.418 | 0.347 | 0.417 | 0.346 | 0.833 | 0.692 | 0.439 | 0.364 | 0.406 | 0.368 | 0.431 | 0.434 | 0.364 | 1.03 | 0.973 | 0.884 | 0.899 | 0.882
26 | SK-LU-1 | 0.531 | 0.689 | 0.555 | 0.715 | 0.502 | 0.46 | 0.503 | 0.321 | 0.312 | 0.519 | 0.505 | 0.518 | 0.497 | 0.53 | 0.435 | 0.471 | 0.426 | 0.497 | 0.394
27 | SK-MES-1 | 0.645 | 0.778 | 0.725 | 0.716 | 0.63 | 0.544 | 0.414 | 0.25 | 0.32 | 0.67 | 0.622 | 0.634 | 0.719 | 0.671 | 0.682 | 0.658 | 0.677 | 0.76 | 0.717
28 | SW 1573 | 0.432 | 0.35 | 0.42 | 0.381 | 0.31 | 0.965 | 1.11 | 0.326 | 0.195 | 0.374 | 0.311 | 0.367 | 0.326 | 0.249 | 0.537 | 0.479 | 0.418 | 0.567 | 0.393

— the supplement of paper PMC10307832
